Experimental data from patent publication US20220008359A1, “COMBINATION ANTI-CANCER PRODUCTS AND METHODS” (priority 2020, published 2022).
Marks after values point to notes of the source that are not given here.

Columns and labels:
Type in all cases: cell-based, human
[1] = test system: H1650 cells (wild type); assay: In-cell immunostaining of protein expression and phosphorylation, H1650 wild type cells; settings: H1650 WT, 6 h; VEH = 100
Experimental: (§1) Assessments of protein expression and protein phosphorylation. Multi-channel fluorescence HCS microscopes perform true in-cell western blotting. Three independent cultures derived from three thawed vials of cells of a tumor were sub-cultured into individual 96-well plates. Twenty-four hours after plating, the cells are transfected with a control plasmid or a control siRNA, or with an empty vector plasmid or with plasmids to express various proteins. After another 24 hours, the cells are ready for drug exposure(s). At various time-points after the initiation of drug exposure, cells are fixed in place using paraformaldehyde and using Triton X100 for permeabilization. Standard immunofluorescent blocking procedures are employed, followed by incubation of different wells with a variety of validated primary antibodies and subsequently validated fluorescent-tagged secondary antibodies are added to each well. The microscope determines the background fluorescence in the well and in parallel randomly determines the mean fluorescent intensity of 100 cells per well.

[2] = test system: H1975 cells (wild type sensitive); assay: In-cell immunostaining of protein expression and phosphorylation, H1975 wild type cells; parameters: HDAC 1 expression / HDAC 2 expression / HDAC 3 expression / HDAC 4 expression / HDAC 5 expression / HDAC 6 expression / HDAC 7 expression / HDAC 8 expression / HDAC 9 expression / HDAC 10 expression / HDAC 11 expression: scale not given here; settings: 6 h
Experimental: (§2) […] Cells were fixed in place 6 hours after treatment and immunostaining of single cells performed to determine the levels of each protein/phosphor-protein (n=3+/−SD). * p<0.05 less than vehicle control; # p<0.05 greater than vehicle control.
as §1

[3] = test system: afatinib-resistant (AR) H1975 cells; assay: In-cell immunostaining of protein expression and phosphorylation, afatinib-resistant H1975 cells; settings: 1975 AR; 6 h; GZ17-6.02 2 mM final curcumin, pemetrexed 500 nM; vehicle 100%
Experimental: as §2
Generation of erlotinib, afatinib and osimertinib-resistant cells. Cells were incubated in vitro with increasing concentrations of vehicle control or erlotinib or osimertinib until after ˜6 weeks the HCC827 and H1975 and H1650 cells grew with similar kinetics to sensitive cells in either erlotinib ([…]) or osimertinib ([…]), respectively. Afatinib-resistant cells were created in vivo by repeated high dosing until tumors disappeared and then regrew, as previously described.
as §1

[4] = 1975 WT, GZ17-6.02 2 mM final curcumin, pemetrexed 500 nM
[5] = 1975 WT, GZ17-6.02 2 mM final curcumin, pemetrexed 500 nM, vehicle 100%

Nc1nc2[nH]cc(CCc3ccc(C(=O)N[C@@H](CCC(=O)O)C(=O)O)cc3)c2c(=O)[nH]1 [PEM, Pemetrexed]
BCL-XL expression [1]: 84* | ERK2 expression [1]: 100 | FLIP-s expression [1]: 92 | MCL-1 expression [1]: 83* | ERK2 expression [2, 4]: 100 | HDAC 1 expression [2, 4]: 99 | HDAC 2 expression [2, 4]: 93 | HDAC 3 expression [2, 4]: 100 | HDAC 4 expression [2, 4]: 100 | HDAC 5 expression [2, 4]: 98 | HDAC 6 expression [2, 4]: 88 | HDAC 7 expression [2, 4]: 98 | HDAC 8 expression [2, 4]: 101 | HDAC 9 expression [2, 4]: 99 | HDAC 10 expression [2, 4]: 102 | HDAC 11 expression [2, 4]: 101 | ATG5 [2, 5]: 109% | Beclin1 [2, 5]: 112% | CD95 [2, 5]: 100% | CHOP [2, 5]: 107% | ERBB1 [2, 5]: 101% | ERBB2 [2, 5]: 101% | ERBB3 [2, 5]: 99% | ERBB4 [2, 5]: 100% | ERK2 [2, 5]: 99% | FAS-L [2, 5]: 108% | GRP78 [2, 5]: 112% | JAK2 [2, 5]: 102% | P-AKT T308 [2, 5]: 87* % | P-AMPKα T172 [2, 5]: 105% | P-ATG13 S318 [2, 5]: 104% | P-ATM S1980 [2, 5]: 108% | P-B1 [2, 5]: 88% | P-B2 [2, 5]: 96% | P-B3 [2, 5]: 95% | P-B4 [2, 5]: 100% | P-ERK1/2 [2, 5]: 95% | P-JAK2 [2, 5]: 91% | P-NFκB S536 [2, 5]: 85* % | P-PDGFRβ [2, 5]: 90% | P-PERK T980 [2, 5]: 103% | P-SRC Y416 [2, 5]: 94% | P-SRC Y527 [2, 5]: 109% | P-STAT3 Y705 [2, 5]: 88% | P-STAT5 Y694 [2, 5]: 91% | P-ULK1 S317 [2, 5]: 105% | P-ULK1 S757 [2, 5]: 91% | P-c-MET [2, 5]: 94% | P-c-MT [2, 5]: 94% | P-eIF2α S51 [2, 5]: 103% | P-mTOR S2448 [2, 5]: 96% | P-mTOR S2481 [2, 5]: 91% | PDGFRβ [2, 5]: 100% | PP1 [2, 5]: 109% | c-KIT [2, 5]: 99% | c-MET [2, 5]: 100% | p70 S6K [2, 5]: 101% | p70 S6K T389 [2, 5]: 99% | BCL-XL expression ([2]; H1975 WT, VEH = 100): 87* | ERK2 expression ([2]; H1975 WT, VEH = 100): 100 | FLIP-s expression ([2]; H1975 WT, VEH = 100): 101 | MCL-1 expression ([2]; H1975 WT, VEH = 100): 81* | ATG5 [3]: 107% | Beclin1 [3]: 111% | CD95 [3]: 101% | CHOP [3]: 104% | ERBB1 [3]: 101% | ERBB2 [3]: 100% | ERBB3 [3]: 99% | ERBB4 [3]: 100% | ERK2 [3]: 99% | FAS-L [3]: 108% | GRP78 [3]: 109% | JAK2 [3]: 100% | P-AKT T308 [3]: 88% | P-AMPKα T172 [3]: 107% | P-ATG13 S318 [3]: 105% | P-ATM S1980 [3]: 108% | P-B1 [3]: 93% | P-B2 [3]: 97% | P-B3 [3]: 97% | P-B4 [3]: 96% | P-ERK1/2 [3]: 98% | P-JAK2 [3]: 87* % | P-NFκB S536 [3]: 98% | P-PDGFRβ [3]: 84* % | P-PERK T980 [3]: 102% | P-SRC Y416 [3]: 92% | P-SRC Y527 [3]: 109% | P-STAT3 Y705 [3]: 95% | P-STAT5 Y694 [3]: 94% | P-ULK1 S317 [3]: 105% | P-ULK1 S757 [3]: 95% | P-c-MET [3]: 102% | P-c-MT [3]: 88% | P-eIF2α S51 [3]: 103% | P-mTOR S2448 [3]: 95% | P-mTOR S2481 [3]: 83* % | PDGFRβ [3]: 100% | PP1 [3]: 104% | c-KIT [3]: 101% | c-MET [3]: 100% | p70 S6K [3]: 100% | p70 S6K T389 [3]: 97%
